Our source for the IC50 values is BindingDB's records for patent US20250263370 (Tay Therapeutics, 2025).

For experiment [1], the target named is T1, Bromodomain-containing protein 4 [348-457] (Human, UniProt O60885).
T1 construct: 348-457
In words: Biological Activity Primary Activity Assay.
Protocol: (§1) 90 μL per well of cell suspension without tracer was also dispensed into at least 3 wells as “No tracer control samples” for background correction. Serially diluted test compounds were prepared at 1000× concentration in DMSO and further diluted to 10× concentration in Opti-MEM. […] Plates were then incubated at 37° C. +5% 002 incubator for 2 hours.

Experiment [2] has as its target Bromodomain-containing protein 4 [58-164] (Homo sapiens, UniProt O60885). In words: Biological Activity Primary Activity Assay.
Protocol: as §1

Some results are limits rather than exact numbers.

As usually defined, the IC50 is the concentration that gives 50% inhibition. Regarding `CNC(=O)c1c(OC(C)c2ccc3c(c2)COC3)cc(C(N)=O)n1C` (centres undefined) [US20250263370, Example 15], the half-maximal inhibitory concentration (IC50) result in experiment [1] was “in the range around 0.6 µM”; in experiment [2], over 10 µM.
In the same order, the values of `CCNC(=O)c1[nH]c(C(=O)NC)c([C@H](C)c2ccccc2F)c1C` [US20250263370, Example 74] are “in the range around 5.5 µM” and over 10 µM.
